Measurements reported in the supplement of paper PMC10307832.

Tests used:
Assay in all cases: relative viability (nuclei count vs DMSO), 5 days (fraction); higher = more cells survive
[1] = compound: O=C1NC(=O)[C@@H](c2cn3c4c(cccc24)CCC3)[C@@H]1c1c[nH]c2ccccc12 [Tivantinib] + NC(=O)Nc1cc(-c2cccc(F)c2)sc1C(=O)N[C@H]1CCCNC1 [AZD7762] (partner 0.2 µM)
How it was run: (§1)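 Medians of duplicate plates are given as relative viability. That measure is the nuclei count in treated wells divided by the count in vehicle wells. Counts were taken on 4× images of lung cancer cell lines in 1536-well plates, 5 days after pin-tool dosing the day after seeding with one drug alone or a fixed anchor-drug dose plus five library-drug doses (not always all listed) in √10 steps.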

[2] = compound: CC1(COc2ccc3c(c2)ncn3-c2ccc3cccc(N4CCC(N)CC4)c3n2)COC1 [Crenolanib] + CCNC(=O)c1noc(-c2cc(C(C)C)c(O)cc2O)c1-c1ccc(CN2CCOCC2)cc1 [Luminespib] (partner 0.01 µM)
How it was run: as §1

[3] = compound: O=C1NC(=O)[C@@H](c2cn3c4c(cccc24)CCC3)[C@@H]1c1c[nH]c2ccccc12 [Tivantinib] + CS(=O)(=O)N1CCN(Cc2cc3nc(-c4cccc5[nH]ncc45)nc(N4CCOCC4)c3s2)CC1 [Pictilisib] (partner 1 µM)
How it was run: as §1

[4] = compound: CC1(COc2ccc3c(c2)ncn3-c2ccc3cccc(N4CCC(N)CC4)c3n2)COC1 [Crenolanib] + O=C(c1cc(Cc2n[nH]c(=O)c3ccccc23)ccc1F)N1CCN(C(=O)C2CC2)CC1 [Olaparib] (partner 8 µM)
How it was run: as §1

Cell Line	relative viability ([1]; first compound 0.01 µM)	relative viability ([1]; first compound 0.03162 µM)	relative viability ([1]; first compound 0.1 µM)	relative viability ([1]; first compound 0.3162 µM)	relative viability ([2]; first compound 0.01 µM)	relative viability ([2]; first compound 0.03162 µM)	relative viability ([2]; first compound 0.1 µM)	relative viability ([2]; first compound 0.3162 µM)	relative viability ([2]; first compound 1 µM)	relative viability ([3]; first compound 0.01 µM)	relative viability ([3]; first compound 0.03162 µM)	relative viability ([3]; first compound 0.1 µM)	relative viability ([3]; first compound 0.3162 µM)	relative viability ([4]; first compound 0.01 µM)	relative viability ([4]; first compound 0.03162 µM)	relative viability ([4]; first compound 0.1 µM)	relative viability ([4]; first compound 0.3162 µM)	relative viability ([4]; first compound 1 µM)
NCI-H1993	0.768	0.715	0.656	0.455	0.998	0.839	0.684	0.823	0.783	0.817	0.857	0.843	0.902	1.16	1.13	1.07	1.15	0.937
CAL-12T	0.563	0.603	0.574	0.437	0.338	0.398	0.272	0.363	0.579	0.393	0.377	0.377	0.265	0.746	0.694	0.721	0.771	0.725
NCI-H1623	–	–	–	–	0.582	0.41	0.457	0.633	0.357	–	–	–	–	–	–	–	–	–
HCC-78	0.688	0.786	0.651	0.425	–	–	–	–	–	0.241	0.177	0.204	0.196	0.998	0.86	0.678	0.826	0.745
EKVX	0.59	0.704	0.619	0.28	0.915	0.952	0.909	1.03	0.93	0.449	0.381	0.417	0.163	0.93	0.849	0.841	0.965	0.809
NCI-H1666	0.904	0.841	0.835	0.705	1.07	1.11	0.991	0.977	1.03	0.552	0.352	0.43	0.401	0.764	0.717	0.723	0.692	0.749
NCI-H1944	0.513	0.511	0.472	0.426	0.729	0.801	0.759	0.871	0.655	0.308	0.294	0.332	0.369	0.404	0.387	0.412	0.413	0.397
NCI-H1734	0.6	0.487	0.505	0.478	0.174	0.171	0.191	0.173	0.291	0.479	0.395	0.416	0.469	0.617	0.676	0.568	0.7	0.605
Calu-6	–	–	–	–	–	–	–	–	–	0.917	0.931	0.901	0.889	0.596	0.494	0.529	0.643	0.556
EBC-1	–	–	–	–	–	–	–	–	–	0.492	0.444	0.471	0.345	0.768	0.727	0.667	0.663	0.641
A-427	0.792	0.829	0.749	0.651	0.84	0.828	0.916	1.01	0.816	0.663	0.702	0.677	0.749	0.79	–	0.759	0.847	0.629
NCI-H2405	0.877	0.806	0.753	0.828	0.786	0.83	–	0.641	0.594	0.509	0.43	0.381	0.4	0.919	–	0.742	0.919	0.86
NCI-H1437	1.22	1.16	1.11	0.96	1.18	1.17	1.1	1.21	0.911	0.379	0.308	0.416	0.407	0.632	0.636	0.621	0.647	0.591
NCI-H358	0.443	0.576	0.497	0.279	1.3	0.307	0.232	0.343	0.337	0.406	0.284	0.418	0.294	0.641	0.594	0.529	0.678	0.603
RERF-LC-KJ	1.08	0.921	0.952	0.92	1.31	1.28	1.04	1.31	1.18	0.543	0.618	0.51	0.461	0.864	0.942	0.871	1.03	0.93
NCI-H23	0.283	0.23	0.319	0.336	0.235	0.279	0.226	0.216	0.174	0.43	0.324	0.533	0.382	0.311	0.278	0.282	0.347	0.341
IA-LM	–	–	–	–	–	–	–	–	–	0.401	0.334	0.343	0.218	0.847	0.907	0.88	0.817	0.883
HCC-15	1.27	1.34	1.15	1.29	0.276	0.408	0.355	0.315	0.302	0.705	0.671	0.674	0.799	0.828	0.734	0.726	0.631	0.63
PC-14	0.296	0.304	0.4	0.226	0.126	–	0.154	0.118	0.146	0.584	0.718	0.723	0.292	0.255	0.257	0.299	0.249	0.257
NCI-H1792	0.653	–	0.644	0.589	0.563	0.424	0.367	0.394	0.429	0.343	0.235	0.288	0.186	0.439	0.397	0.334	0.757	0.384
